Experiments:
[1] = system: fasting blood glucose [空腹時血糖値]; test: Example 1: fasting blood glucose in high-fat-diet ICR mice, olanzapine and β-glucan; format: in vivo, mouse; conditions: male ICR mice, 4 weeks, 16 h fast, tail vein, olanzapine 3 mg/kg/day p.o. and/or β-glucan 5 v/v% in drinking water, mean ± SD, high-fat control 84.4±14.65, normal diet control 72.6±10.49
[2] = system: fasting blood glucose [空腹時血糖値]; test: Example 2: fasting blood glucose in high-fat-diet ICR mice, clozapine and β-glucan; format: in vivo, mouse; conditions: male ICR mice, 4 weeks, 16 h fast, tail vein, clozapine 5 mg/kg/day p.o. with or without β-glucan 5 v/v% in drinking water

Question: `Cc1cc2c(s1)Nc1ccccc1N=C2N1CCN(C)CC1` [オランザピン] was tested. Which “fasting blood glucose, mean” value [1] did it give?
Answer: The value was 124.8 ± 16.44 mg/dL.

Question: How did the fasting blood glucose [2] turn out when `CN1CCN(C2=Nc3cc(Cl)ccc3Nc3ccccc32)CC1` [クロザピン] was run?
Answer: The fasting blood glucose was 124.0 ± 8.91 mg/dL.

Source: patent publication JP2014074001A, “抗精神病剤” (KONAN MEDICAL CO Ltd, priority 2012, dated 2014)
